From ChEMBL document CHEMBL3352341, “Design, synthesis and biological characterization of thiazolidin-4-one derivatives as promising inhibitors of Toxoplasma gondii” (Eur J Med Chem, 2014)
pIC50: −log10 of the molar value. Active and inactive are the calls of the source.

What was measured:
Toxoplasma gondii [1] = experiment: Antiparasitic activity against Toxoplasma gondii infected in human foreskin fibroblasts assessed as inhibition of replication measured as decrease in the number of tachyzoites in vacuole at 10 uM after 24 hrs by fluorescence assay; type: functional, organism-based
[2] = Cytotoxicity against human foreskin fibroblasts after 5 days by colorimetric assay; type: cell-based; conditions: human foreskin fibroblasts (HFF cells), read-out: TD50
[3] = Therapeutic index, ratio of TD50 for human foreskin fibroblasts to IC50 for Toxoplasma gondii infected in human foreskin fibroblasts; conditions: read-out: TI
Toxoplasma gondii [4] = experiment: Antiparasitic activity against Toxoplasma gondii infected in human foreskin fibroblasts assessed as inhibition of invasion compound pretreated at 10 uM for 20 mins before infection after 1 hr by fluorescence assay; type: functional, organism-based
Toxoplasma gondii [5] = experiment: Antiparasitic activity against Toxoplasma gondii infected in human foreskin fibroblasts assessed as tachyzoite growth inhibition after 5 days by colorimetric assay; type: functional, organism-based; conditions: 120 h
Toxoplasma gondii [6] = experiment: Antiparasitic activity against Toxoplasma gondii infected in human foreskin fibroblasts assessed as inhibition of attachment compound pretreated at 10 uM for 20 mins before infection after 1 hr by fluorescence assay; type: functional, organism-based

Row | Compound | inhibition (Toxoplasma gondii [1]) | CC50 at 120 h [2] | selectivity ratio [3] | inhibition (Toxoplasma gondii [4]) | pIC50 (Toxoplasma gondii [5]) | IC90 (Toxoplasma gondii [5]) | inhibition (Toxoplasma gondii [6])
1 | C/C(CC(C)C)=N/N=C1\NC(=O)CS1 | Active | 290 µM | 13 | Active | 4.64 | 126 µM | Active
2 | CC1CC/C(=N/N=C2\NC(=O)CS2)C1 (stereo not given) | Active | ≥ 320 µM | 23 | Active | 4.62 | 154 µM | Active
3 | O=C1CS/C(=N/N=C2CCCCCCC2)N1Cc1ccccc1 | Active | 205 µM | 5 |  | 4.37 | 508 µM | 
4 | C/C(=N/N=C1/SCC(=O)N1Cc1ccccc1)C1CCCCC1 | Active | 60 µM | 3 |  | 4.62 | 71 µM | 
5 | CC1CCC/C1=N/N=C1\NC(=O)CS1 (stereo not given) | Active | 35 µM | 39 | Active | 6.05 | 2 µM | Active
6 | C/C(=N/N=C1/SCC(=O)N1Cc1ccccc1)c1ccncc1 | Active | 183 µM | 5 | Active | 4.44 | 103 µM | Active
7 | O=C1CSC(NN=C2CCCC2)=N1 | Active | ≥ 320 µM | 21 | Active | 4.57 | 175 µM | Active
8 | C=CCC/C(C)=N\N=C1/NC(=O)CS1 | Active | ≥ 320 µM | 3 |  | 3.71 | 2220 µM | 
9 | CCCCCC/C(C)=N\N=C1\SCC(=O)N1Cc1ccccc1 | Active | 109 µM | 6 |  | 4.70 | 88 µM | 
10 | O=C1CS/C(=N/N=C\c2ccncc2)N1 | Active | ≥ 320 µM | 28 | Active | 4.70 | 129 µM | Active
11 | CCC(CC)=N/N=C1\NC(=O)CS1 | Active | ≥ 320 µM | 4 |  | 3.90 | 580 µM | 
12 | O=C1CS/C(=N/N=C\c2ccncc2)N1Cc1ccccc1 | Active | 203 µM | 2 |  | 3.93 | 304 µM | 
13 | C/C(=N/N=C1/SCC(=O)N1Cc1ccccc1)c1cccnc1 | Active | 147 µM | 3 |  | 4.09 | 181 µM | 
14 | C/C(=N\N=C1/NC(=O)CS1)c1ccncc1 | Active | ≥ 320 µM | 11 |  | 4.28 | 401 µM | 
15 | COc1cc(Cc2cnc(N)nc2N)cc(OC)c1OC [TRIMETHOPRIM] | Active | ≥ 320 µM | 43 |  | 4.89 | 73 µM | 
16 | C/C(=N/N=C1/SCC(=O)N1Cc1ccccc1)c1ccco1 | Active | ≥ 320 µM | 7 |  | 4.12 | 212 µM | 
17 | O=C1CS/C(=N/N=C\c2cccc3ccccc23)N1Cc1ccccc1 |  | ≥ 320 µM | 15 | Active | 4.42 | 79 µM | Active
18 | C/C(=N/N=C1/SCC(=O)N1Cc1ccccc1)c1ccccc1 | Active | ≥ 320 µM | 9 |  | 4.21 | 294 µM | 
19 | C/C(=N/N=C1\NC(=O)CS1)c1ccccc1 | Active | ≥ 320 µM | 5 |  | 3.94 | 262 µM | 
20 | O=C1CS/C(=N/N=C\c2cccs2)N1Cc1ccccc1 | Active | 54 µM | < 1 |  | 3.57 | 1660 µM | 
21 | CCCC/C(CC)=N\N=C1/NC(=O)CS1 | Active | ≥ 320 µM | 6 |  | 4.05 | 288 µM | 
22 | CCCC/C(CC)=N\N=C1\SCC(=O)N1Cc1ccccc1 | Active | ≥ 320 µM | 37 | Active | 4.82 | 121 µM | Active
23 | CCCCC/C(C)=N\N=C1\SCC(=O)N1Cc1ccccc1 | Active | 88 µM | 5 |  | 4.72 | 120 µM | 
24 | O=C1CSC(NN=C2CCCCC2)=N1 | Active | ≥ 320 µM | 20 | Active | 4.55 | 278 µM | Active

Row | Compound | inhibition (Toxoplasma gondii [1]) | CC50 at 120 h [2] | selectivity ratio [3] | inhibition (Toxoplasma gondii [4]) | pIC50 (Toxoplasma gondii [5]) | IC90 (Toxoplasma gondii [5]) | inhibition (Toxoplasma gondii [6])
25 | C/C(=N/N=C1\NC(=O)CS1)c1cccnc1 | Active | ≥ 320 µM | 8 |  | 4.13 | 406 µM | 
26 | CC1CCCC/C1=N/N=C1\NC(=O)CS1 (stereo not given) | Active | ≥ 320 µM | 2 |  | 3.61 | 785 µM | 
27 | CCCCCC/C(C)=N\N=C1/NC(=O)CS1 | Active | ≥ 320 µM | 18 | Active | 4.51 | 188 µM | Active
28 | CC(C)=N/N=C1/SCC(=O)N1Cc1ccccc1 | Active | ≥ 320 µM | 2 |  | 3.63 | 636 µM | 
29 | CC1CCC/C1=N/N=C1/SCC(=O)N1Cc1ccccc1 (stereo not given) | Active | ≥ 320 µM | 11 |  | 4.28 | 329 µM | 
30 | CC1CCC/C(=N/N=C2/SCC(=O)N2Cc2ccccc2)C1 (stereo not given) | Active | 95 µM | 2 |  | 4.24 | 248 µM | 
31 | O=C1CS/C(=N/N=C2CCCCC2)N1Cc1ccccc1 | Active | ≥ 320 µM | 2 |  | 3.59 | 662 µM | 
32 | CC/C(C)=N\N=C1/NC(=O)CS1 | Active | ≥ 320 µM | 4 |  | 3.88 | 1160 µM | 
33 | O=C1CS/C(=N/N=C\c2ccco2)N1Cc1ccccc1 | Active | ≥ 320 µM | 5 |  | 3.95 | 396 µM | 
34 | CCC(CC)=N/N=C1/SCC(=O)N1Cc1ccccc1 | Active | ≥ 320 µM | 16 |  | 4.44 | 243 µM | 
35 | O=C1CS/C(=N/N=C\c2cccs2)N1 | Active | ≥ 320 µM | 4 |  | 3.87 | 2680 µM | 
36 | O=C1CS/C(=N/N=C\c2cccnc2)N1 | Active | ≥ 320 µM | 11 |  | 4.28 | 268 µM | 
37 | O=C1CS/C(=N/N=C2CCCCCC2)N1Cc1ccccc1 | Active | ≥ 320 µM | 2 |  | 3.59 | 1530 µM | 
38 | CC1CC/C(=N/N=C2/SCC(=O)N2Cc2ccccc2)C1 (stereo not given) | Active | ≥ 320 µM | 3 |  | 3.74 | 845 µM | 
39 | O=C1CS/C(=N/N=C\c2ccc3c(c2)OCO3)N1Cc1ccccc1 | Active | ≥ 320 µM | 2 |  | 3.54 | 2140 µM | 
40 | C/C(=N/N=C1\NC(=O)CS1)c1cc2ccccc2oc1=O |  | ≥ 320 µM | 70 | Active | 5.10 | 49 µM | Active
41 | O=C1CS/C(=N/N=C\c2c[nH]c3ccccc23)N1 | Active | ≥ 320 µM | 3 |  | 3.78 | 474 µM | 
42 | C/C(=N/N=C1\NC(=O)CS1)c1cccs1 | Active | ≥ 320 µM | 9 |  | 4.19 | 387 µM | 
43 | C/C(=N/N=C1\NC(=O)CS1)c1ccc2ccccc2c1 | Active | ≥ 320 µM | 10 |  | 4.25 | 175 µM | 
44 | C=CCC/C(C)=N\N=C1\SCC(=O)N1Cc1ccccc1 | Active | ≥ 320 µM | 3 |  | 3.68 | 885 µM | 
45 | O=C1CSC(NN=C2CCCCCCC2)=N1 | Active | 309 µM | 4 |  | 4.10 | 290 µM | 
46 | O=C1CS/C(=N/N=C\c2cccnc2)N1Cc1ccccc1 | Active | 239 µM | 2 |  | 3.95 | 245 µM | 
47 | CC(C)(C)C1CCCC/C1=N/N=C1\NC(=O)CS1 (stereo not given) | Active | ≥ 320 µM | 3 |  | 3.66 | 693 µM | 
